Experiments:
[1] = molecular target: Histone-lysine N-methyltransferase SUV39H2 (Homo sapiens, UniProt Q9H5I1); assay: Inhibition of SUV39H2 (unknown origin) using H3 histone peptide substrate and [3H]-SAM incubated for 3 hrs by microbeta counting based assay
[2] = system: A549; assay: Cytotoxicity against human A549 cells assessed as reduction in cell viability incubated for 72 hrs by CCK8 assay; assay type: functional, cell-based; conditions: A549, 72 h
[3] = system: HFL1; assay: Cytotoxicity against human HFL1 cells assessed as reduction in cell viability incubated for 72 hrs by CCK8 assay; assay type: functional, cell-based; conditions: HFL1, 72 h
[4] = system: HCT-116; assay: Cytotoxicity against human HCT116 cells assessed as reduction in cell viability incubated for 72 hrs by CCK8 assay; assay type: functional, cell-based; conditions: HCT-116, 72 h
[5] = system: PC-14; assay: Cytotoxicity against human PC14 cells assessed as reduction in cell viability incubated for 72 hrs by CCK8 assay; assay type: functional, cell-based; conditions: PC-14, 72 h
[6] = system: CCD-18Co; assay: Cytotoxicity against human CCD-18Co cells assessed as reduction in cell viability incubated for 72 hrs by CCK8 assay; assay type: functional, cell-based

Histone-lysine N-methyltransferase SUV39H2, sequence (Q9H5I1 whole entry): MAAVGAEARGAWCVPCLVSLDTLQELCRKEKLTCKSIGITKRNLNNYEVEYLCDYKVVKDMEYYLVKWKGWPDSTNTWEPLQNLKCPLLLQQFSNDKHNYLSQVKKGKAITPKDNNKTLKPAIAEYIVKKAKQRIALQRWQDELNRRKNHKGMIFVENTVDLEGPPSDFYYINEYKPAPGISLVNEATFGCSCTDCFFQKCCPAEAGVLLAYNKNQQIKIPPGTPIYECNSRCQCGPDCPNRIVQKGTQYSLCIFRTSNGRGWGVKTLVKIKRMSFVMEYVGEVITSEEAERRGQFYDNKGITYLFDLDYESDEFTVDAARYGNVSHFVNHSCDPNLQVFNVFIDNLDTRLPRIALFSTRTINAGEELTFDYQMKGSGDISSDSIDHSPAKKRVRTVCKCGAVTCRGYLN

Structure (SMILES)	IC50 [1]	IC50 [2]	further results
CNCC(=O)Nc1ccc(-c2ccn3cc(-c4cc(Cl)c(OC)cc4OC)nc3c2)cc1	0.0801 µM		
COc1cc(OC)c(-c2cn3ccc(N4CCN(c5cnc(N6CCC(NS(=O)(=O)C7CC7)CC6)nc5)CC4)cc3n2)cc1Cl		0.67 µM	
COc1cc(OC)c(-c2cn3ccc(N[C@H]4CC[C@@H](N(C)Cc5ccc(F)cc5)CC4)cc3n2)cc1Cl		1.3 µM	
COc1cc(OC)c(-c2cn3ccc(N4CCN(Cc5ccc(C#N)nc5)CC4)cc3n2)cc1Cl		0.96 µM	
COc1cc(OC)c(-c2cn3ccc(N[C@H]4C[C@H]5CC[C@@H](C4)N5CC4CCCCC4)cc3n2)cc1Cl		0.55 µM	
COc1cc(OC)c(-c2cn3ccc(-c4ccc(C(=O)NC5CCNC5)cc4)cc3n2)cc1Cl (centres undefined)		5.4 µM	IC50 [3]: 5.4 µM; IC50 [4]: 3.7 µM; IC50 [5]: 4.8 µM; IC50 [6]: 5.2 µM
COc1cc(OC)c(-c2cn3ccc(NC(=O)[C@@H](N)CCCCN)cc3n2)cc1Cl		10 µM	IC50 [3]: 10 µM; IC50 [4]: 10 µM; IC50 [6]: 10 µM
COc1cc(OC)c(-c2cn3ccc(N4CCN(c5cnc(N6CCNCC6)nc5)CC4)cc3n2)cc1Cl	0.0148 µM		
COCC(=O)N1CCN(c2ccn3cc(-c4cc(Cl)c(OC)cc4OC)nc3c2)C(C)C1 (centres undefined)	0.00188 µM		
COc1cc(OC)c(-c2cn3ccc(-c4ccc(C(=O)[C@H](C)N)cc4)cc3n2)cc1Cl	0.0995 µM		
COC(=O)c1ccc(CN[C@H]2CC[C@@H](Nc3ccn4cc(-c5cc(Cl)c(OC)cc5OC)nc4c3)CC2)cc1	0.0241 µM		
COc1cc(OCCCN(C)C)c(-c2cn3ccc(N4CCN(C(C)=O)CC4)cc3n2)cc1Cl		6.9 µM	IC50 [3]: 4.3 µM; IC50 [4]: 7.9 µM; IC50 [5]: 8 µM; IC50 [6]: 8.7 µM
COc1cc(OC)c(-c2cn3ccc(N[C@H]4CC[C@@H](N(C)Cc5ccccc5F)CC4)cc3n2)cc1Cl		0.74 µM	
